# Active and inactive are the calls of the source. No cut-off for these calls is given here.
# Key:
# [1] = tested on: Nakaseomyces glabratus; assay: Antifungal activity against Candida glabrata C624 by broth dilution method; type: functional; settings: read-out: MIC100
# [2] = tested on: Candida albicans; assay: Antifungal activity against Candida albicans C693 by broth dilution method; type: functional; settings: read-out: MIC100
# [3] = molecular target: T1, Beta-1,3-glucan synthase (Candida albicans, UniProt O13383); assay: Inhibition of glucan synthase in Candida albicans BWP17 membrane; type: cell membranes
# T1 sequence (O13383 whole entry): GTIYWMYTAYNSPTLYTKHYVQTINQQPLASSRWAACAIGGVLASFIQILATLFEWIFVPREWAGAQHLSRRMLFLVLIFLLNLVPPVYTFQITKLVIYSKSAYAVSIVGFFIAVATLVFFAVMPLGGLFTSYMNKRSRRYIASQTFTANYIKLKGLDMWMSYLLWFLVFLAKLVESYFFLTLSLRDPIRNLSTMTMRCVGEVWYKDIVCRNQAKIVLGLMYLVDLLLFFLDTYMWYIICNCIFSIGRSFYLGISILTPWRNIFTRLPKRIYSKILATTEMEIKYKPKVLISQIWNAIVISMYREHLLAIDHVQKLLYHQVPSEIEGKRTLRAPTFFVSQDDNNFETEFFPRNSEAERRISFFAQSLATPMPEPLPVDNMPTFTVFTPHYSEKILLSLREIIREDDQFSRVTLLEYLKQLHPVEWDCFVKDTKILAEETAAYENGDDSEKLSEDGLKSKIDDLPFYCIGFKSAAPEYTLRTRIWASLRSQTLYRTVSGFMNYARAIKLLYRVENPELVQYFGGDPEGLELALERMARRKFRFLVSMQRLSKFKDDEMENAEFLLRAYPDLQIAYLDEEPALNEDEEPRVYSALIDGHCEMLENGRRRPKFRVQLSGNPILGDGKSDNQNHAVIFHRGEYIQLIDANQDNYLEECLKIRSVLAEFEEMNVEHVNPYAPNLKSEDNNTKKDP
# [4] = AUC (0 to 6 hrs) in rat at 10 mg/kg, po; type: ADME, organism-based; design: time < 6 hr, dose 10 mg/kg, route oral; settings: plasma
# [5] = Clearance in rat hepatocytes assessed per million cells; type: ADME, cell-based, Hepatocyte; settings: read-out: CLH
# [6] = tested on: Candida albicans; assay: Antifungal activity against Candida albicans C43 systemically infected in mouse assessed as reduction in fungal burden in kidney at 100 mg/kg, ip administered daily for 4 days relative to vehicle treated control; type: functional, organism-based; design: dose 100 mg/kg
# [7] = tested on: Candida albicans; assay: Antifungal activity against Candida albicans C43 by broth dilution method in presence of 25% human serum; type: functional; settings: read-out: MIC100
# [8] = tested on: Aspergillus fumigatus; assay: Antifungal activity against Aspergillus fumigatus ND158 by broth dilution method; type: functional; settings: read-out: MEC
# [9] = tested on: Candida albicans; assay: Antifungal activity against Candida albicans C375 by broth dilution method; type: functional; settings: read-out: MIC100
# [10] = tested on: Candida albicans; assay: Antifungal activity against Candida albicans C43 systemically infected in mouse assessed as reduction in fungal burden in kidney at 100 mg/kg, ip administered daily for 4 days relative to caspofungin; type: functional, organism-based; design: dose 100 mg/kg
# [11] = tested on: Candida albicans; assay: Antifungal activity against Candida albicans C43 by broth dilution method; type: functional; settings: read-out: MIC100
# [12] = Clearance in human hepatocytes assessed per million cells; type: ADME, cell-based, Hepatocyte; settings: read-out: CLH
SMILES,MIC [1],MIC [2],IC50 [3],AUC(0-t) at 6 h [4],hepatocyte CLint [5],Activity [6],MIC [7],minimal effective concentration [8],MIC [9],Activity [10],MIC [11],hepatocyte CLint [12]
CC1(CO/C(C(=O)Nc2cccc(Cl)c2)=C(/C=N)N2CCN(S(=O)(=O)NCc3ccccc3)CC2)CC1,2.08 µg/mL,> 33 µg/mL,5310 nM,–,–,–,–,–,–,–,–,–
COc1cc(CNS(=O)(=O)N2CCN(/C(C=N)=C(\OCC3(C)CC3)C(=O)Nc3cccc(Cl)c3)CC2)ccc1N,0.52 µg/mL,0.52 µg/mL,157 nM,860 ng·h/mL,12.6 µL/min/1e6 cells,inactive,4.17 µg/mL,4.17 µg/mL,4.17 µg/mL,inactive,1.04 µg/mL,–
CN(C)S(=O)(=O)N1CCN(/C(C=N)=C(\OC2CCCC2)C(=O)Nc2cccc(Cl)c2)CC1,0.1 µg/mL,6.25 µg/mL,1900 nM,–,–,–,–,–,–,–,–,–
CC(C)N(C)S(=O)(=O)N1CCN(/C(C=N)=C(\OC2CCCC2)C(=O)Nc2cccc(Cl)c2)CC1,0.39 µg/mL,10 µg/mL,1450 nM,–,–,–,–,–,–,–,–,–
COC(=O)c1ccc(CNS(=O)(=O)N2CCN(/C(C=N)=C(\OCC3(C)CC3)C(=O)Nc3cccc(Cl)c3)CC2)cc1,0.13 µg/mL,0.52 µg/mL,530 nM,–,–,–,–,–,–,–,–,–
CC1(CO/C(C(=O)Nc2cccc(Cl)c2)=C(/C=N)N2CCN(S(=O)(=O)NCc3nc4cc(Cl)ccc4o3)CC2)CC1,0.52 µg/mL,2.08 µg/mL,1300 nM,–,–,–,–,–,–,–,–,–
N=C/C(=C(/OC1CCCC1)C(=O)Nc1cccc(Cl)c1)N1CCN(S(=O)(=O)N2CCOCC2)CC1,0.39 µg/mL,25 µg/mL,2870 nM,–,–,–,–,–,–,–,–,–
Cc1cc(CNS(=O)(=O)N2CCN(/C(C=N)=C(\OCC3(C)CC3)C(=O)Nc3cccc(Cl)c3)CC2)ccc1N,0.52 µg/mL,0.26 µg/mL,108 nM,900 ng·h/mL,–,–,–,2.08 µg/mL,2.08 µg/mL,–,0.52 µg/mL,13.4 µL/min/1e6 cells
Cc1nc2ccc(CNS(=O)(=O)N3CCN(/C(C=N)=C(\OCC4(C)CC4)C(=O)Nc4cccc(Cl)c4)CC3)cc2s1,0.06 µg/mL,0.52 µg/mL,97.2 nM,–,–,–,–,–,–,–,–,–
CC1(CO/C(C(=O)Nc2cccc(Cl)c2)=C(/C=N)N2CCN(S(=O)(=O)NCc3ccc(F)c(N)c3)CC2)CC1,0.52 µg/mL,0.52 µg/mL,297 nM,–,–,–,–,2.08 µg/mL,4.17 µg/mL,–,2.08 µg/mL,–
N=C/C(=C(/OC1CCCC1)C(=O)Nc1cccc(Cl)c1)N1CCN(S(N)(=O)=O)CC1,16.7 µg/mL,> 33 µg/mL,42100 nM,–,–,–,–,–,–,–,–,–
CC(C)NS(=O)(=O)N1CCN(/C(C=N)=C(\OC2CCCC2)C(=O)Nc2cccc(Cl)c2)CC1,0.03 µg/mL,0.52 µg/mL,361 nM,–,–,–,–,–,–,–,–,–
COc1ccc(CNS(=O)(=O)N2CCN(/C(C=N)=C(\OCC3(C)CC3)C(=O)Nc3cccc(Cl)c3)CC2)cc1N,0.52 µg/mL,0.26 µg/mL,237 nM,440 ng·h/mL,15 µL/min/1e6 cells,–,2.08 µg/mL,4.17 µg/mL,4.17 µg/mL,–,0.52 µg/mL,–
CC1(CO/C(C(=O)Nc2cccc(Cl)c2)=C(/C=N)N2CCN(S(=O)(=O)NCc3ccncc3)CC2)CC1,2.08 µg/mL,0.52 µg/mL,91.4 nM,–,–,–,–,–,–,–,–,–
CCN(CC)S(=O)(=O)N1CCN(/C(C=N)=C(\OC2CCCC2)C(=O)Nc2cccc(Cl)c2)CC1,0.2 µg/mL,6.25 µg/mL,625 nM,–,–,–,–,–,–,–,–,–
COc1ccc(CNS(=O)(=O)N2CCN(/C(C=N)=C(\OCC3(C)CC3)C(=O)Nc3cccc(Cl)c3)CC2)cc1OC,0.06 µg/mL,0.26 µg/mL,297 nM,–,–,–,–,–,–,–,–,–
CC1(CO/C(C(=O)Nc2cccc(Cl)c2)=C(/C=N)N2CCN(S(=O)(=O)NCc3ccnc(N)c3)CC2)CC1,2.08 µg/mL,8.35 µg/mL,409 nM,50 ng·h/mL,–,–,–,16.7 µg/mL,> 33 µg/mL,–,16.7 µg/mL,–
CC(NS(=O)(=O)N1CCN(/C(C=N)=C(\OCC2(C)CC2)C(=O)Nc2cccc(Cl)c2)CC1)c1cccc(N)c1 (stereo not drawn),1.04 µg/mL,1.04 µg/mL,522 nM,1300 ng·h/mL,–,–,–,16.7 µg/mL,8.35 µg/mL,–,4.17 µg/mL,–
CC1(CO/C(C(=O)Nc2cccc(Cl)c2)=C(/C=N)N2CCN(S(=O)(=O)NCc3cccnc3)CC2)CC1,2.08 µg/mL,1.04 µg/mL,201 nM,–,–,–,–,–,–,–,–,–
CC1(CO/C(C(=O)Nc2cccc(Cl)c2)=C(/C=N)N2CCN(S(=O)(=O)NCc3nc4ccccc4s3)CC2)CC1,0.26 µg/mL,0.26 µg/mL,398 nM,–,–,–,–,–,–,–,–,–
Cc1ccc(CNS(=O)(=O)N2CCN(/C(C=N)=C(\OCC3(C)CC3)C(=O)Nc3cccc(Cl)c3)CC2)cc1N,0.26 µg/mL,0.26 µg/mL,125 nM,1410 ng·h/mL,–,–,–,1.04 µg/mL,2.08 µg/mL,–,0.52 µg/mL,19.6 µL/min/1e6 cells
Cc1ccc(CNS(=O)(=O)N2CCN(/C(C=N)=C(\OC3CCC(F)C3)C(=O)Nc3cc(F)cc(F)c3)CC2)cc1N (mixture of isomers),–,–,–,2580 ng·h/mL,–,–,–,–,–,–,–,–
N=C/C(=C(/OC1CCCC1)C(=O)Nc1cccc(Cl)c1)N1CCN(S(=O)(=O)Nc2ccccc2)CC1,0.16 µg/mL,> 25 µg/mL,117 nM,–,–,–,–,–,–,–,–,–
CC1(CO/C(C(=O)Nc2cccc(Cl)c2)=C(/C=N)N2CCN(S(=O)(=O)NCc3ccc(N)c(F)c3)CC2)CC1,0.13 µg/mL,0.06 µg/mL,111 nM,–,12.7 µL/min/1e6 cells,–,1.04 µg/mL,1.04 µg/mL,0.52 µg/mL,–,0.13 µg/mL,–
N=C/C(=C(/OC1CCCC1)C(=O)Nc1cccc(Cl)c1)N1CCN(S(=O)(=O)NCc2ccccc2)CC1,< 0.02 µg/mL,0.03 µg/mL,87.9 nM,–,–,–,–,–,–,–,–,–
